Laboratory results: ChEMBL document CHEMBL1201862, “PubChem BioAssay data set” (2004)
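These data come from cells grown in 96-well plates and exposed to compound for 48 hours at five concentrations. Here, GI50 denotes the concentration required for 50% inhibition of growth.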 Activity calls are given as the source filed them. Rule as the data show it: active = GI50 up to about 1.1 µM and inactive = higher.

Tests used:
Experiment in all cases: NCI anticancer screen, dose series, 48 h
HT-29 = tested on: HT-29
HCC 2998 = tested on: HCC 2998
HCT-116 = tested on: HCT-116
PC-3 = tested on: PC-3
T47D = tested on: T47D
IGROV-1 = tested on: IGROV-1
EKVX = tested on: EKVX
MCF7 = tested on: MCF7
Hs-578T = tested on: Hs-578T
MDA-MB-231 = tested on: MDA-MB-231
OVCAR-4 = tested on: OVCAR-4
MOLT-4 = tested on: MOLT-4
NCI-H460 = tested on: NCI-H460
SK-MEL-2 = tested on: SK-MEL-2
UACC-257 = tested on: UACC-257
SK-MEL-5 = tested on: SK-MEL-5
SK-MEL-28 = tested on: SK-MEL-28
SNB-75 = tested on: SNB-75
SW-620 = tested on: SW-620
M14 = tested on: M14
UO-31 = tested on: UO-31
DU-145 = tested on: DU-145
SF-539 = tested on: SF-539
SK-OV-3 = tested on: SK-OV-3
K562 = tested on: K562
SF-268 = tested on: SF-268
COLO 205 = tested on: COLO 205
TK-10 = tested on: TK-10
MDA-N = tested on: MDA-N
MDA-MB-435 = tested on: MDA-MB-435
A549 = tested on: A549
HCT-15 = tested on: HCT-15
OVCAR-8 = tested on: OVCAR-8
RPMI-8226 = tested on: RPMI-8226
CCRF-CEM = tested on: CCRF-CEM
NCI-H226 = tested on: NCI-H226
SF-295 = tested on: SF-295
KM12 = tested on: KM12
ACHN = tested on: ACHN
NCI/ADR-RES = tested on: NCI/ADR-RES
HOP-62 = tested on: HOP-62
SR = tested on: SR
U-251 = tested on: U-251
786-0 = tested on: 786-0
SNB-19 = tested on: SNB-19
SN12C = tested on: SN12C
HL-60 = tested on: HL-60
RXF 393 = tested on: RXF 393
CAKI-1 = tested on: CAKI-1
UACC-62 = tested on: UACC-62

Measured: GI50

COc1ccc(C(=O)/C=C/c2ccc(OCCSCCCCCCCCCCSCCOc3ccc(/C=C/C(=O)c4ccc(OC)cc4)cc3)cc2)cc1
inactive: HT-29 > 100 µM | HCC 2998 > 100 µM | HCT-116 > 100 µM | PC-3 > 100 µM | T47D > 100 µM | IGROV-1 > 100 µM | EKVX > 100 µM | MCF7 > 100 µM | Hs-578T > 100 µM | MDA-MB-231 > 100 µM | OVCAR-4 > 100 µM | MOLT-4 > 100 µM | NCI-H460 > 100 µM | SK-MEL-2 > 100 µM | UACC-257 > 100 µM | SK-MEL-5 > 100 µM | SK-MEL-28 > 100 µM | SNB-75 > 100 µM | SW-620 > 100 µM | M14 > 100 µM | UO-31 > 100 µM | DU-145 > 100 µM | SF-539 > 100 µM | SK-OV-3 > 100 µM | K562 > 100 µM | SF-268 > 100 µM | COLO 205 > 100 µM | TK-10 > 100 µM | MDA-MB-435 > 100 µM | A549 > 100 µM | OVCAR-8 > 100 µM | RPMI-8226 > 100 µM | CCRF-CEM > 100 µM | NCI-H226 > 100 µM | SF-295 > 100 µM | KM12 > 100 µM | ACHN > 100 µM | NCI/ADR-RES > 100 µM | HOP-62 > 100 µM | SR > 100 µM | U-251 > 100 µM | 786-0 > 100 µM | SNB-19 > 100 µM | SN12C > 100 µM | HL-60 > 100 µM | RXF 393 > 100 µM | CAKI-1 > 100 µM | UACC-62 > 100 µM
> 100 µM: HCT-15
active: MDA-N < 0.01 µM
